Laboratory results as given in EP4617273A1, “FUSED TRICYCLIC PARP1 INHIBITOR, PREPARATION METHOD THEREFOR, AND USE THEREOF” (Haihe Biopharma Co., Ltd., priority 2022, dated 2024).
Read-outs that look alike come from different tables or passages of the source.

Legend:
[1] = tested on: MDA-MB-436 cells; experiment: MDA-MB-436 cell proliferation inhibition test (CellTiter-Glo, 7 days); assay type: cell-based; conditions: Homo sapiens, MDA-MB-436, 168 h, 7 days incubation
Method: Human breast cancer MDA-MB-436 (purchased from ATCC) cells were cultured in DMEM medium (supplemented with 10% fetal bovine serum with 1% dual antibody) at 37 °C, 5% CO2. The cells were taken from the logarithmic growth phase, digested and prepare cell suspension witha certain concentration, which was inoculated into 96-well plates. 100 µL of cell suspension was added to each well of the 96-well plates, incubated overnight, then different concentrations of compounds were added, and the cells were incubated in the cell culture incubator for 7 days. At the end of incubation, 50 µL of CellTiter-Glo reagent was added to each well, mixed with a microplate and shaked for 2 min, and left at rt for 60 min, then the fluorescence value was read with a Spark® multimode microplate reader. […] Table 2. proliferation inhibitory activity of compounds of the present invention on MDA-MB-436 cells

[2] = tested on: MDR1; experiment: MDR1-MDCK II cell model of bidirectional permeability; assay type: in vitro ADME; conditions: dog, 2 µM, 2.5 h; for Papp A→B at 2.5 h, 2 µM: apical-to-basolateral; for Papp B→A at 2.5 h, 2 µM: basolateral-to-apical
Method: 2 µM of the test compound was added to the wells at the apical side or the basolateral side of the monolayer of cells and incubated for 2.5 h at 37.0°C in a 5.0% CO2 incubator. Cell monolayer integrity was determined by Lucifer yellowrejection assay. The buffer was removed from the apical side and basolateral side, and the concentration of the subject compounds was determined using LC-MS/MS. The concentration data were used to calculate the apparent permeabilitycoefficients of apical-to-basolateral (A-B) and basolateral-to-apical (B-A)side, and to calculate efflux ratio with the formula: Efflux Ratio = Papp (B-A) / Papp (A-B) Table 3. bidirectional permeability of MDR1-MDCK II cells for compounds of the present invention

[3] = target: T1, Recombinant human PARP1 protein (Homo sapiens, UniProt P09874); experiment: biochemical
T1 sequence (P09874 whole entry): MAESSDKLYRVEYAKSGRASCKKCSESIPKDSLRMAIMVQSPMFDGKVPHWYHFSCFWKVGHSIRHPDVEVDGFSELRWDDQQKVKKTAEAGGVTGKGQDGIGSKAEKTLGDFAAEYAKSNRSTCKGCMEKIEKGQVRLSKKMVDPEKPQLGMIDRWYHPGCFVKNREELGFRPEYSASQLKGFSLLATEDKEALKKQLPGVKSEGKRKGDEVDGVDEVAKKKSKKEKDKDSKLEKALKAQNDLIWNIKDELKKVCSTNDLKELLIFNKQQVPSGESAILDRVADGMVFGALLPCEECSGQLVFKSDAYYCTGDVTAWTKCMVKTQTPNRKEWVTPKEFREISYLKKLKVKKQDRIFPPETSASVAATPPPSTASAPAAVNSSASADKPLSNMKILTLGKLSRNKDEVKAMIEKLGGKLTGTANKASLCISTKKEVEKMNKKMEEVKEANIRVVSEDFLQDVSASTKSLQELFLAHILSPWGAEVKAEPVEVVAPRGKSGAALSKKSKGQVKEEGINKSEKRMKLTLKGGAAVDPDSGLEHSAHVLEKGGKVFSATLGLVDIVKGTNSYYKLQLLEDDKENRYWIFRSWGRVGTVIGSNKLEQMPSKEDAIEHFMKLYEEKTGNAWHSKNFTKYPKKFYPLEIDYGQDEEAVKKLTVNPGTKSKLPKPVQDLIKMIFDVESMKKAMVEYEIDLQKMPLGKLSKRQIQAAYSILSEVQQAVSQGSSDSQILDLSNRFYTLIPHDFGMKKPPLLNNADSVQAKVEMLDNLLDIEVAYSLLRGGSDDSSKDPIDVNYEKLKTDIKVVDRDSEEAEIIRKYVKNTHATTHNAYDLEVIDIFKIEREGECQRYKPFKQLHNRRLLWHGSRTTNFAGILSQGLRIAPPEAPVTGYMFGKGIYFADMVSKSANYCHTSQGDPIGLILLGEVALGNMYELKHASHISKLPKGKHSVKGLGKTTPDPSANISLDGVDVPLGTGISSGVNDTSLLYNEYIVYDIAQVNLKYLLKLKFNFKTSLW
Method: (§1) The PARP1/2 inhibitory activity of the compounds of the present invention was tested in an assay using Histone as a substrate.
(§2) Aim of the assay: to test the PARP1/2 enzymatic activity inhibition IC50 values of the compounds of the present application according to established experimental methods.
(§3) 1. Compound Configuration: Dilute the compounds with DMSO in 384-well plates to a 1000-fold final concentration and set aside.
(§4) 1) Dilute Histone with PBS, add 25uL of Histone mixture to each well and incubate for 2 h. 2) Wash each well 5 times using PBST solution. Remove the solution with a clean paper towel.3) Add 75 uL of Blocking buffer to each well and incubate for 1 h at rt. 4) Wash each well 5 times using PBST solution. Remove the solution with a clean paper towel.
(§5) 2) Use 1× Assay buffer to prepare 2.5× final concentration of PARP1 solution. 3) Add 10 uL of enzyme solution to the compound wells and Max control wells; add 10 uL of 1× Assay buffer. […] 6) Centrifuge at 1000 rpm for 60 seconds and incubate at rt for 2 h. 7) Each well was washed 5 times with PBST solution. Remove the solution with a clean paper towel.
(§6) 1) Prepare Streptavidin-HRP solution, add 25 µL to each well, centrifuge at 1000 rpm for 60 sec, and incubate at rt for 30 min. 2) Wash each well 5 times using PBST solution. Remove the solution with a clean paper towel. 3) Add 50 µL of ELISA Chemiluminescent Substrate per well. 4) Centrifuge at 1000 rpm for 60 seconds and read with EnSight after 5 min.
(§7) The inhibition rate was calculated using the following formula: % inhibition = (max signal - compound signal) / (max signal - min signal) × 100, where 'min signal' is the mean value of negative control wells and 'max signal' is the mean value of positive control wells.
(§8) Fitting the quantitative effect curve: using the log value of the concentration as the X-axis and the percentage inhibition as the Y-axis; using the log(inhibitor) vs. response-variable slope method in software GraphPadPrism5 to fit the quantitative effect curve to calculate the IC50 value for the inhibition of the enzyme activity by the compounds of the present invention. The fitting formula is: Y=Bottom+ (Top-Bottom)/(1+10^((logIC50-X)*HillSlope)).

[4] = target: T2, recombinant human PARP2 protein (Homo sapiens, UniProt Q9UGN5); experiment: PARP2 enzymatic inhibitory activity, histone substrate, chemiluminescent ELISA; assay type: biochemical
T2 construct: purchased BPS 80502
T2 sequence (Q9UGN5 whole entry): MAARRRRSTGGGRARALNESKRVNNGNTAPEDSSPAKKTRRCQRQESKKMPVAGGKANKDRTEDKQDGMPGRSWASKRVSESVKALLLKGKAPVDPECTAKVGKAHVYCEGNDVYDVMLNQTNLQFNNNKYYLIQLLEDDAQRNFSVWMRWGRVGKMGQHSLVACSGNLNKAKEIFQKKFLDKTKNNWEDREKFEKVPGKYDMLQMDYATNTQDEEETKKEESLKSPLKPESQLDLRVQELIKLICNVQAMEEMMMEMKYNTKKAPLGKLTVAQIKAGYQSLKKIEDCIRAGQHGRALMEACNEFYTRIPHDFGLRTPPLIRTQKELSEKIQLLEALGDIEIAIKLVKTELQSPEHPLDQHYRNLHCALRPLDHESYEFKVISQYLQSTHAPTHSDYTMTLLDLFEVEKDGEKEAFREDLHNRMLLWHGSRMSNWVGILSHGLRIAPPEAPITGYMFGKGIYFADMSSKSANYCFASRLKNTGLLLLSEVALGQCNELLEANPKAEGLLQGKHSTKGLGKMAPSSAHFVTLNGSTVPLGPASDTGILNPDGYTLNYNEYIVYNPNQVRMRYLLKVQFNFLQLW
Method: The PARP2 inhibitory activity assay was performed as in Experimental Method 1, except that PARP1 solution in step 2 of "3. Ribosylation reaction" was replaced with recombinant human PARP2 solution, and 500 µM NAD+ was not added in step 5 of the ribosylation reaction. Table 1. IC50 for inhibition of PARP1/2 enzymes by compounds of the present invention

[5] = target: T1, Recombinant human PARP1 protein; experiment: PARP1 enzymatic inhibitory activity, histone substrate, chemiluminescent ELISA; conditions: PARP2 IC50 over PARP1 IC50
Method: as §1, §2, §3, §4, §5, §6, §7, §8

[6] = Preliminary pharmacokinetic test in mice; assay type: in vivo; conditions: male, ICR; for AUC(0-t) / clearance / half-life: mouse plasma; for bioavailability: plasma, oral, mouse, p.o. 5 mg/kg versus i.v. 1 mg/kg
Method: 1. Healthy ICR mice were administered the tested compounds intravenously (1 mg/kg) or by gavage (5 mg/kg). Nine male mice weighing 30-35 g for each route of administration were randomly divided into three groups of three mice each.
The mice were fasted for 12h before the test and allowed to drink water freely. The mice were fed 4h after the administration.
Intravenous and gavage administration: 0.25h, 0.5h, 1.0h, 2.0h, 3.0h, 4.0h, 6.0h, 8.0h and 24h after administration.
Blood was collected continuously, and 3 animals were collected at each time point. Plasma collection and processing: 30-40 µL of venous blood was collected from the mouse retroorbital venous plexus at the above set time points, placed in an EDTA-K2 test tube, centrifuged at 3500 rpm for 10 min, and plasma was separated and frozen in a -20 °C refrigerator.
The concentration of the compounds in mouse plasma was determined by LC/MS/MS. Pharmacokinetic parameters after administration were calculated using the […] of Phoenix 8.3 software (Pharsight, USA).

[7] = histone substrate, 500 µM NAD+ not added, read-out: PARP2 IC50

| Structure (SMILES) | IC50 [1] | IC50 [3] | IC50 [4, 7] | PARP1/2 Fold selectivity [5] | other results |
| --- | --- | --- | --- | --- | --- |
| CNC(=O)c1ccc(N2CCN(Cc3ccc4c(c3F)NC(=O)N3CC5(CC5)N=C43)CC2)c(C)n1 [Compound 157] | 3.6 nM | 0.5 nM |  |  | Papp A→B at 2.5 h, 2 µM [2]: 15.1 ×10⁻⁶ cm/s; Papp B→A at 2.5 h, 2 µM [2]: 21.6 ×10⁻⁶ cm/s |
| CNC(=O)c1ccc(N2CCN(Cc3ccc4c(c3F)NC(=O)N3CC5(CC5)N=C43)CC2)c(F)n1 [Compound 138] | 3 nM |  |  |  | Papp A→B at 2.5 h, 2 µM [2]: 14.7 ×10⁻⁶ cm/s; Papp B→A at 2.5 h, 2 µM [2]: 17 ×10⁻⁶ cm/s |
| CNC(=O)c1ccc(OC2CCN(Cc3ccc4c(c3)[nH]c(=O)c3ccnn34)C2)cn1 (centres unmarked) [Compound 75] |  | 16.5 nM | 1870 nM | 113.5 |  |
| CNC(=O)c1ccc(N2CCN(Cc3ccc4c(c3Cl)NC(=O)N3CCN=C43)CC2)c(F)n1 [Compound 134] |  | 2.8 nM | 3680 nM | 1313.2 |  |
| CNC(=O)c1ccc(N2CCN(Cc3ccc4c(c3F)NC(=O)N3CCCN=C43)CC2)c(F)n1 [Compound 139] | 10.4 nM | 1 nM |  |  | AUC(0-t) ([6]; iv, i.v. 1 mg/kg): 2820 ng·h/mL; clearance ([6]; iv, i.v. 1 mg/kg): 5.9 mL/min/kg; half-life ([6]; iv, i.v. 1 mg/kg): 3.1 h; bioavailability [6]: 98%; AUC(0-t) ([6]; po, p.o. 5 mg/kg): 13800 ng·h/mL; half-life ([6]; po, p.o. 5 mg/kg): 3.2 h; Papp A→B at 2.5 h, 2 µM [2]: 16.7 ×10⁻⁶ cm/s; Papp B→A at 2.5 h, 2 µM [2]: 21.8 ×10⁻⁶ cm/s |
| CNC(=O)c1ccc(N2CCN(C(C)c3ccc4c([nH]c(=O)c5ccnn54)c3F)CC2)c(F)n1 (centres unmarked) [Compound 13] |  | 2.87 nM | 3150 nM | 1098.6 |  |
| CNC(=O)c1ccc(N2CCN(Cc3ccc4c(c3F)NC(=O)N3CC[C@H](C)N=C43)CC2)c(F)n1 [Compound 142] |  | 5.6 nM | > 10000 nM | >1756 |  |
| CNC(=O)c1ccc(N2CCN(Cc3ccc4c(c3F)NC(=O)N3CCCN=C43)CC2)c(Cl)n1 [Compound 141] | 5.8 nM | 1.3 nM |  |  | AUC(0-t) ([6]; iv, i.v. 1 mg/kg): 3020 ng·h/mL; clearance ([6]; iv, i.v. 1 mg/kg): 5.5 mL/min/kg; half-life ([6]; iv, i.v. 1 mg/kg): 1.2 h; bioavailability [6]: 92.6%; AUC(0-t) ([6]; po, p.o. 5 mg/kg): 14000 ng·h/mL; half-life ([6]; po, p.o. 5 mg/kg): 2.5 h; Papp A→B at 2.5 h, 2 µM [2]: 16.2 ×10⁻⁶ cm/s; Papp B→A at 2.5 h, 2 µM [2]: 23.1 ×10⁻⁶ cm/s |
| CNC(=O)c1ccc(N2CCN(Cc3ccc4c(c3F)NC(=O)N3CC5(CC5)N=C43)CC2)c(Cl)n1 [Compound 158] | 2.2 nM | 0.48 nM |  |  | AUC(0-t) ([6]; iv, i.v. 1 mg/kg): 3090 ng·h/mL; clearance ([6]; iv, i.v. 1 mg/kg): 5.5 mL/min/kg; half-life ([6]; iv, i.v. 1 mg/kg): 0.8 h; bioavailability [6]: 108%; AUC(0-t) ([6]; po, p.o. 5 mg/kg): 11000 ng·h/mL; half-life ([6]; po, p.o. 5 mg/kg): 1 h; Papp A→B at 2.5 h, 2 µM [2]: 14.7 ×10⁻⁶ cm/s; Papp B→A at 2.5 h, 2 µM [2]: 14.1 ×10⁻⁶ cm/s |
| CNC(=O)c1ccc(N2CCN(Cc3ccc4c(c3F)NC(=O)N3CC(C)CN=C43)CC2)c(F)n1 (centres unmarked) [Compound 144] |  | 5.2 nM | > 10000 nM | >1923 |  |
| O=C(NC1CC1)c1ccc(N2CCN(Cc3ccc4c(c3F)NC(=O)N3CCCN=C43)CC2)c(F)n1 [Compound 182] |  | 1.83 nM | 547 nM | 299 |  |
| CNC(=O)c1ccc(N2CCN(Cc3ccc4c(c3F)NC(=O)N3C4=NC[C@@H]3C)CC2)c(Cl)n1 [Compound 156] | 25 nM | 1.9 nM |  |  | Papp A→B at 2.5 h, 2 µM [2]: 16.3 ×10⁻⁶ cm/s; Papp B→A at 2.5 h, 2 µM [2]: 21.1 ×10⁻⁶ cm/s |
| CNC(=O)c1ccc(N2CCN(C(C)c3ccc4c([nH]c(=O)c5cccn54)c3F)CC2)cn1 (centres unmarked) [Compound 8] |  | 2.04 nM | 118 nM | 57.9 |  |
| CNC(=O)c1ccc(N2CCN(Cc3ccc4c(c3F)NC(=O)N3C[C@@H](F)CN=C43)CC2)c(F)n1 [Compound 149] |  | 1.6 nM |  | 557.9 | IC50 [4]: 893 nM |
| CNC(=O)c1ccc(N2CCN(Cc3ccc4c(c3F)NC(=O)N3C4=NCCC3C)CC2)c(F)n1 (centres unmarked) [Compound 150] |  | 17.6 nM | > 10000 nM | >568 |  |
| CNC(=O)c1ccc(N2CCN(C(C)c3ccc4c(c3)[nH]c(=O)c3cnn(C)c34)CC2)c(F)n1 (centres unmarked) [Compound 15] |  | 3.6 nM | 313 nM | 86.8 |  |

Second part, led by results:

| IC50 [1] | IC50 [3] | IC50 [4, 7] | PARP1/2 Fold selectivity [5] | Structure (SMILES) | other results |
| --- | --- | --- | --- | --- | --- |
| 1.4 nM | 0.9 nM | 829 nM | 922.1 | CNC(=O)c1ccc(N2CCN(Cc3ccc4c(c3)[nH]c(=O)c3nc(C)sc34)CC2)c(F)n1 [Compound 103] |  |
|  | 1.46 nM | 893 nM | 611.4 | CNC(=O)c1ccc(N2CCN(Cc3ccc4c(c3F)NC(=O)N3C4=NC[C@@H]3C)CC2)c(C)n1 [Compound 155] |  |
|  | 1.07 nM | 561 nM | 524.6 | CNC(=O)c1ccc(N2CCN(Cc3ccc4c(c3)NC(=O)N3CCN=C43)CC2)c(F)n1 [Compound 124] |  |
|  | 1.2 nM | 1550 nM | 1324 | C[C@@H]1CN2C(=O)Nc3c(ccc(CN4CCN(c5ccc(C(=O)NC6CC6)nc5Cl)CC4)c3F)C2=N1 [Compound 201] |  |
| 22.6 nM | 1.8 nM | 1400 nM | 466.3 | CNC(=O)c1ccc(N2CCN(Cc3ccc4c(c3F)NC(=O)N3C4=NC[C@@H]3C)CC2)c(F)n1 [Compound 137] |  |
| 4.6 nM | 0.8 nM | 358 nM | 447.6 | CNC(=O)c1ccc(N2CCN(Cc3ccc4c(c3)[nH]c(=O)c3nn(C)cc34)CC2)c(F)n1 [Compound 22] |  |
| < 1.52 nM | 0.8 nM | 1300 nM | 1626.3 | CNC(=O)c1ccc(N2CCN(Cc3ccc4c([nH]c(=O)c5ccnn54)c3F)CC2)c(Cl)n1 [Compound 113] |  |
|  | 1.83 nM | 780 nM | 426.4 | CCNC(=O)c1ccc(N2CCN(Cc3ccc4c(c3F)NC(=O)N3C[C@@H](C)N=C43)CC2)c(C)n1 [Compound 34] |  |
| 2.1 nM | 1 nM | 278 nM | 277.7 | CNC(=O)c1ccc(N2CCN(Cc3ccc4c(c3F)NC(=O)N3C[C@H](F)CN=C43)CC2)c(F)n1 [Compound 147] |  |
| 2.2 nM | 0.47 nM | 97.5 nM | 207.4 | CNC(=O)c1ccc(N2CCN(Cc3ccc4c(c3F)NC(=O)N3CC(F)(F)CN=C43)CC2)c(Cl)n1 [Compound 159] |  |
|  | 1.56 nM | 728 nM | 466.3 | N#Cc1ccc(N2CCN(Cc3ccc4c(c3F)NC(=O)N3CCCN=C43)CC2)nc1 [Compound 188] |  |
| 15.3 nM | 1.2 nM | 1280 nM | 1064 | CNC(=O)c1ccc(N2CCN(Cc3ccc4c(c3F)NC(=O)N3CC(C)N=C43)CC2)c(F)n1 (centres unmarked) [Compound 131] |  |
| < 1.52 nM | 0.57 nM | 214 nM | 374.9 | CNC(=O)c1ccc(N2CCN(C(C)c3ccc4c(c3)[nH]c(=O)c3ccnn34)CC2)c(F)n1 (centres unmarked) [Compound 12] |  |
|  | 1.09 nM | 894 nM | 820.2 | CCNC(=O)c1ccc(N2CCN(Cc3ccc4c(c3F)NC(=O)N3C[C@@H](C)N=C43)CC2)c(Cl)n1 [Compound 185] |  |
| 3.7 nM | 1 nM | 522 nM | 521.6 | CNC(=O)c1ccc(N2CCN(Cc3ccc4c(c3)[nH]c(=O)c3nc(C)oc34)CC2)c(F)n1 [Compound 102] |  |
|  | 0.38 nM | 204 nM | 536.3 | CNC(=O)c1ccc(N2CCN(C(C)c3ccc4c([nH]c(=O)c5cccn54)c3F)CC2)c(F)n1 (centres unmarked) [Compound 7] |  |
|  | 0.95 nM | 514 nM | 541.5 | CNC(=O)c1ccc(N2CCN(C(C)c3ccc4c(c3F)NC(=O)N3CC5(CC5)N=C43)CC2)c(F)n1 (centres unmarked) [Compound 173] |  |
